According to the NIST ThermoML archive (doi:10.1021/je300972a):

Tests used:
[1] = refractive index (Na D-line) (dimensionless); details: 101.33 kPa, Liquid, Standard Abbe refractometry
[2] = 101 kPa, Liquid; for viscosity: Falling or rolling sphere viscometry; for mass density: Vibrating tube method
[3] = refractive index (Na D-line) (dimensionless); xn = mol fraction of the nth substance listed; details: 101 kPa, Liquid, Standard Abbe refractometry, x1 = 1
[4] = xn = mol fraction of the nth substance listed; details: 101 kPa, Liquid, x1 = 1; for viscosity: Falling or rolling sphere viscometry; for mass density: Vibrating tube method

CCCC[n+]1ccc(C)cc1.O=S(=O)([N-]S(=O)(=O)C(F)(F)F)C(F)(F)F
Details	mass density, [2] [kg/m3]	refractive index, [1]	viscosity, [2] [mPa·s]
293.15 K	1416.6	1.448	70.6
303.15 K	1407.3	1.4449	45.2
313.15 K	1398.1	1.4419	30.6
323.15 K	1388.8	1.4388	21.8
333.15 K	1379.7	1.4358	16.1
343.15 K	1370.5	1.4328	12.3
353.15 K	1361.5	1.4298	9.8

CCCC[n+]1ccccc1.F[B-](F)(F)F [1-butylpyridinium tetrafluoroborate]
Details	mass density, [2] [kg/m3]	refractive index, [1]	viscosity, [2] [mPa·s]
293.15 K	1217.1	1.447	227.1
303.15 K	1210.3	1.4444	123.6
313.15 K	1203.5	1.4418	74.8
323.15 K	1196.7	1.4392	48.1
333.15 K	1189.9	1.4366	33
343.15 K	1183.2	1.4341	23.8
353.15 K	1176.5	1.4315	17.7

CCCC[n+]1ccccc1.F[B-](F)(F)F [1-butylpyridinium tetrafluoroborate] + CCCC[n+]1ccc(C)cc1.O=S(=O)([N-]S(=O)(=O)C(F)(F)F)C(F)(F)F
Details	mass density, [4] [kg/m3]	refractive index, [3]	viscosity, [4] [mPa·s]
293.15 K	1217.1	1.447	227.1
303.15 K	1210.3	1.4444	123.6
313.15 K	1203.5	1.4418	74.8
323.15 K	1196.7	1.4392	48.1
333.15 K	1189.9	1.4366	33
343.15 K	1183.2	1.4341	23.8
353.15 K	1176.5	1.4315	17.7
